From PMC10993126, “Capture of endogenous lipids in peptidiscs and effect on protein stability and activity” (iScience, 2024) come the findings set out here.

Data set [1] deals with T1, SecYEG (HD-SecYEG; PD-SecYEG-CL).
T1 construct: gene secY; read out with SecA; with Protein translocase subunit SecA
As to the kind of experiment: CL added before peptidisc reconstitution; SecA ATPase by Malachite green; SecA binding by clear-native PAGE. Conditions: 20:1 lipid to SecYEG molar ratio; with SecA; 1 mM ATP, 10 mM MgCl2, pH 8.8, 37°C; lipid activator. In kind it is biochemical, Escherichia coli.

Data set [2] concerns the molecule itself. As to the kind of experiment: native gel or EMSA; 5-13% native PAGE with Coomassie staining of the DDM-MsbA and peptidisc-MsbA preparations (DDC, DLW, DHW). Background: A gel shift assay detects complexes by their altered migration in electrophoresis.

T1 sequence (P0AG96 whole entry): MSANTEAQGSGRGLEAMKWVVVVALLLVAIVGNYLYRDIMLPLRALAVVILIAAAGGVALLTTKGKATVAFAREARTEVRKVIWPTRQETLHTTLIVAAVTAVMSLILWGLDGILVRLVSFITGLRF
T1 sequence (P0AGA2 whole entry, further chain): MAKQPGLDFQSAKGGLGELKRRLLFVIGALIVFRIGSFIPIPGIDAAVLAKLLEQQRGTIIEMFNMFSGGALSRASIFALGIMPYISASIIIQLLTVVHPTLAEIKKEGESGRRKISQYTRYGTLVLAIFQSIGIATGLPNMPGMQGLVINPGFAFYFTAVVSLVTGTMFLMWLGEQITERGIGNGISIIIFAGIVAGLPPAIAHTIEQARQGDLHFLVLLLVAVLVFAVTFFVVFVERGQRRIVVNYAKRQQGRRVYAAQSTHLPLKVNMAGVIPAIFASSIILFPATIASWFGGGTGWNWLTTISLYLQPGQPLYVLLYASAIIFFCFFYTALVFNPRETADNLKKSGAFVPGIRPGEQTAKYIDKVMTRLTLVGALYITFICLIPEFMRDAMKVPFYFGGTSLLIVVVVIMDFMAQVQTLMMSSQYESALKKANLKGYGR
T1 sequence (P10408 whole entry, further chain): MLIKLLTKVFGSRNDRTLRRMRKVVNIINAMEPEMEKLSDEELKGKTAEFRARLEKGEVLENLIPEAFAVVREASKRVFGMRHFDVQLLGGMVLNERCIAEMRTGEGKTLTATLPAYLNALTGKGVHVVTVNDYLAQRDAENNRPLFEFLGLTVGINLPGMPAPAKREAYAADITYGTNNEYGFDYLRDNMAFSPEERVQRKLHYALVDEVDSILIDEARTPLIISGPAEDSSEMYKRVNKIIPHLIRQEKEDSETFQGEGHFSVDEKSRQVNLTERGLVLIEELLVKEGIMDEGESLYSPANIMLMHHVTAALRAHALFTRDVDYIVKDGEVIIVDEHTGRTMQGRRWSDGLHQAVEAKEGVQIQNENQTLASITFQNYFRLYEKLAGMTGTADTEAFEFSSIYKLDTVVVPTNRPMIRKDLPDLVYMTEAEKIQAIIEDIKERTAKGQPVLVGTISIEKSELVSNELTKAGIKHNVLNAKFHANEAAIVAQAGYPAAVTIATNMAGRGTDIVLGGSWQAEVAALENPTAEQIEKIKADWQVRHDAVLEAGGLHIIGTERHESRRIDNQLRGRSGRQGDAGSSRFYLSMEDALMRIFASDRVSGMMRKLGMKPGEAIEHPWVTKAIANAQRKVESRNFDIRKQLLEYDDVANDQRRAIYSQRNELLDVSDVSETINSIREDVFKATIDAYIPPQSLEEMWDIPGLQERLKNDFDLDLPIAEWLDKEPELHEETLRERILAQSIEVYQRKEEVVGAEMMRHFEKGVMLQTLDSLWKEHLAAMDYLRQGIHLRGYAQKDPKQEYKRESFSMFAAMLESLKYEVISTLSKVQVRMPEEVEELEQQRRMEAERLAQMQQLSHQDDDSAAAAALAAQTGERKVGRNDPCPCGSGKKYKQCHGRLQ
T1 sequence (P0AG99 whole entry, further chain): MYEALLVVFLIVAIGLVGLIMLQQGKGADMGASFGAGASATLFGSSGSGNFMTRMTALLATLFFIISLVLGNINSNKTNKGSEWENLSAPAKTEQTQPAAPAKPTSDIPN

With `CCCCCCCC/C=C\CCCCCCCC(=O)O[C@H](COC(=O)CCCCCCCCCCCCCCC)COP(=O)(O)OCC(O)COP(=O)(O)OC[C@@H](COC(=O)CCCCCCCCCCCCCCC)OC(=O)CCCCCCC/C=C\CCCCCCCC` (some centres unmarked) [CL, 1',3'-bis[1-palmitoyl-2-oleoyl-sn-glycero-3-phospho]-glycerol], the “fold increase in SecA ATPase activity” value in data set [1] is listed as ~ 4 fold.

B1: His6-tagged MsbA (natural protein, UniProt P60752 1-582, looked up)
chain: MHNDKDLSTWQTFRRLWPTIAPFKAGLIVAGVALILNAASDTFMLSLLKPLLDDGFGKTDRSVLVWMPLVVIGLMILRGITSYVSSYCISWVSGKVVMTMRRRLFGHMMGMPVSFFDKQSTGTLLSRITYDSEQVASSSSGALITVVREGASIIGLFIMMFYYSWQLSIILIVLAPIVSIAIRVVSKRFRNISKNMQNTMGQVTTSAEQMLKGHKEVLIFGGQEVETKRFDKVSNRMRLQGMKMVSASSISDPIIQLIASLALAFVLYAASFPSVMDSLTAGTITVVFSSMIALMRPLKSLTNVNAQFQRGMAACQTLFTILDSEQEKDEGKRVIERATGDVEFRNVTFTYPGRDVPALRNINLKIPAGKTVALVGRSGSGKSTIASLITRFYDIDEGEILMDGHDLREYTLASLRNQVALVSQNVHLFNDTVANNIAYARTEQYSREQIEEAARMAYAMDFINKMDNGLDTVIGENGVLLSGGQRQRIAIARALLRDSPILILDEATSALDTESERAIQAALDELQKNRTSLVIAHRLSTIEKADEIVVVEDGVIVERGTHNDLLEHRGVYAQLHKMQFGQ
notes: The same protein was prepared with different amounts of endogenous lipid (DDC, DLW, DHW in peptidisc; DDM in detergent); also called DDC-MsbA; DLW-MsbA; source: E. coli BL21(DE3), membranes solubilized with DDM, purified (Ni-NTA), reconstituted in peptidiscs or kept in DDM
On to B1, for which the stoichiometry N (usually the number of molecules, sites or subunits per partner or assembly) in data set [2] came to 2.
